According to ChEMBL document CHEMBL4507295 (2021):

Tests used:
[1] = biological target: Phosphorylase b kinase gamma catalytic chain, skeletal muscle/heart isoform (Homo sapiens) (UniProt Q16816); details: Compound concentration 1000.0 nM
[2] = biological target: Serine/threonine-protein kinase ULK3 (Homo sapiens) (UniProt Q6PHR2); details: Compound concentration 1000.0 nM
[3] = biological target: Cyclin-dependent kinase 15 (Homo sapiens) (UniProt Q96Q40); details: Compound concentration 1000.0 nM
[4] = system: Serine/threonine-protein kinase B-raf (Homo sapiens), P15056 [V600E]; details: Compound concentration 1000.0 nM
[5] = system: Mast/stem cell growth factor receptor Kit (Homo sapiens), P10721 [D816V]; details: Compound concentration 1000.0 nM
[6] = biological target: Serine/threonine-protein kinase 4 (Homo sapiens) (UniProt Q13043); details: Compound concentration 1000.0 nM
[7] = biological target: Homeodomain-interacting protein kinase 2 (Homo sapiens) (UniProt Q9H2X6); details: Compound concentration 1000.0 nM
[8] = biological target: Testis-specific serine/threonine-protein kinase 1 (Homo sapiens) (UniProt Q9BXA7); details: Compound concentration 1000.0 nM
[9] = biological target: Mitogen-activated protein kinase kinase kinase 13 (Homo sapiens) (UniProt O43283); details: Compound concentration 1000.0 nM
Mitogen-activated protein kinase kinase kinase 13 (Homo sapiens), sequence (O43283 whole entry, canonical isoform): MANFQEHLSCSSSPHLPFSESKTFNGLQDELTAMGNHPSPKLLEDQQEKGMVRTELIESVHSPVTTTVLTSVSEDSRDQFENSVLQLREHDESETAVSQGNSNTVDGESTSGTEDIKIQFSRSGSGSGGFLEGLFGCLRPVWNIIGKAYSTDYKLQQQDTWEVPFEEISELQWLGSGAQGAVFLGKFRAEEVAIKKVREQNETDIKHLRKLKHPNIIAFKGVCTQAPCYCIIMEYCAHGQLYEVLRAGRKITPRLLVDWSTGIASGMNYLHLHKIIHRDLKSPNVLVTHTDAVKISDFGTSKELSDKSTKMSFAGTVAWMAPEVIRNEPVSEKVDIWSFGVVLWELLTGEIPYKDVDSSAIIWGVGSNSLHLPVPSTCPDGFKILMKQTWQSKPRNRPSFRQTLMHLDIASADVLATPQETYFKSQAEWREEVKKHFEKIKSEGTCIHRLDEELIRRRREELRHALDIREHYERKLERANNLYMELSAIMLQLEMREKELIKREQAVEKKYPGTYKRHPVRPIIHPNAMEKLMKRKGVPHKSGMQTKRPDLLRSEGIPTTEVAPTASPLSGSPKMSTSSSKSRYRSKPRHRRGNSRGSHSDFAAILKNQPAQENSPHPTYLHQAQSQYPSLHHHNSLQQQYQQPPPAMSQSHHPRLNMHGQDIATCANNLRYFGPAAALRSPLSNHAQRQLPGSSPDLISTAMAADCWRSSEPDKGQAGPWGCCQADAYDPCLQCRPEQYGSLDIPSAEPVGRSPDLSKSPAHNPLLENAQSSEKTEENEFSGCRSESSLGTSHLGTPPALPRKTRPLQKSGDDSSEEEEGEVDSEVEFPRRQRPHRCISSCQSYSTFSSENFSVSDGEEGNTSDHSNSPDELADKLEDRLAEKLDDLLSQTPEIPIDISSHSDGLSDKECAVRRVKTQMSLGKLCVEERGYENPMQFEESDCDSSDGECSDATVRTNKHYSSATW

[10] = biological target: Casein kinase I isoform epsilon (Homo sapiens) (UniProt P49674); details: Compound concentration 1000.0 nM
[11] = biological target: Serine/threonine-protein kinase BRSK1 (Homo sapiens) (UniProt Q8TDC3); details: Compound concentration 1000.0 nM
Serine/threonine-protein kinase BRSK1 (Homo sapiens), sequence (Q8TDC3 whole entry): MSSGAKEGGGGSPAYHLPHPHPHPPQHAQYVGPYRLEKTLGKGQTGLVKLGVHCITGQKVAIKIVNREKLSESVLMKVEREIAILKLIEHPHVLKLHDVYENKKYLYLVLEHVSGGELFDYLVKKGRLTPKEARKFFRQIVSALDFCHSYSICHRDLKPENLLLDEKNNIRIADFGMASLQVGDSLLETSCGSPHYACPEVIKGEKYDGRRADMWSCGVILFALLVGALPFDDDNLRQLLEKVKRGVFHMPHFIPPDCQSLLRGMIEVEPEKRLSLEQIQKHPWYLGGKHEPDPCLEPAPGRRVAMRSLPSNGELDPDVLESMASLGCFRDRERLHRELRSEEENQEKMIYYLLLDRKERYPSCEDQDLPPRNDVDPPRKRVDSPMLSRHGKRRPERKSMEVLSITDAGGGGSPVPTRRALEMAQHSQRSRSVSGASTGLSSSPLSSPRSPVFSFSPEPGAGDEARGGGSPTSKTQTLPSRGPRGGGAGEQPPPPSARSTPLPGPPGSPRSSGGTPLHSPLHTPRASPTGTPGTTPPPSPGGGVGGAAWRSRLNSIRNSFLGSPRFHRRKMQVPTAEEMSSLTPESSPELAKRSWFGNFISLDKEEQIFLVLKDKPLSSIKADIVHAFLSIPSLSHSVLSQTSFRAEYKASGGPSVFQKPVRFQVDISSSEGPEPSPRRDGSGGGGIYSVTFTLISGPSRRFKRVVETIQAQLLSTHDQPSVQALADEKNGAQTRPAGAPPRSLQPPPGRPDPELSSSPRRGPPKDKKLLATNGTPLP

[12] = biological target: Macrophage colony-stimulating factor 1 receptor (Homo sapiens) (UniProt P07333); details: Compound concentration 1000.0 nM
[13] = biological target: Serine/threonine-protein kinase DCLK1 (Homo sapiens) (UniProt O15075); details: Compound concentration 1000.0 nM
[14] = biological target: Protein kinase C eta type (Homo sapiens) (UniProt P24723); details: Compound concentration 1000.0 nM
[15] = biological target: Beta-1 adrenergic receptor (Homo sapiens) (UniProt P08588); details: Compound concentration 10.0 uM
[16] = biological target: Calcium/calmodulin-dependent protein kinase type II subunit alpha (Homo sapiens) (UniProt Q9UQM7); details: Compound concentration 1000.0 nM
[17] = system: Leucine-rich repeat serine/threonine-protein kinase 2 (Homo sapiens), Q5S007 [G2019S]; details: Compound concentration 1000.0 nM
[18] = biological target: Serine/threonine-protein kinase 10 (Homo sapiens) (UniProt O94804); details: Compound concentration 1000.0 nM
[19] = biological target: Serine/threonine-protein kinase 38-like (Homo sapiens) (UniProt Q9Y2H1); details: Compound concentration 1000.0 nM
[20] = system: Tyrosine-protein kinase ABL1 (Homo sapiens), P00519 [E255K]; details: Compound concentration 1000.0 nM
[21] = biological target: Cyclin-dependent kinase 11A (Homo sapiens) (UniProt Q9UQ88); details: Compound concentration 1000.0 nM
[22] = biological target: Receptor-interacting serine/threonine-protein kinase 2 (Homo sapiens) (UniProt O43353); details: Compound concentration 1000.0 nM
[23] = biological target: Tyrosine-protein kinase ABL1 (Homo sapiens) (UniProt P00519); details: Compound concentration 1000.0 nM
[24] = system: ALK tyrosine kinase receptor (Homo sapiens), Q9UM73 [C1156Y]; details: Compound concentration 1000.0 nM
[25] = biological target: SRSF protein kinase 3 (Homo sapiens) (UniProt Q9UPE1); details: Compound concentration 1000.0 nM
[26] = biological target: Tyrosine-protein kinase Fes/Fps (Homo sapiens) (UniProt P07332); details: Compound concentration 1000.0 nM
[27] = biological target: 3-phosphoinositide-dependent protein kinase 1 (Homo sapiens) (UniProt O15530); details: Compound concentration 1000.0 nM
3-phosphoinositide-dependent protein kinase 1 (Homo sapiens), sequence (O15530 whole entry): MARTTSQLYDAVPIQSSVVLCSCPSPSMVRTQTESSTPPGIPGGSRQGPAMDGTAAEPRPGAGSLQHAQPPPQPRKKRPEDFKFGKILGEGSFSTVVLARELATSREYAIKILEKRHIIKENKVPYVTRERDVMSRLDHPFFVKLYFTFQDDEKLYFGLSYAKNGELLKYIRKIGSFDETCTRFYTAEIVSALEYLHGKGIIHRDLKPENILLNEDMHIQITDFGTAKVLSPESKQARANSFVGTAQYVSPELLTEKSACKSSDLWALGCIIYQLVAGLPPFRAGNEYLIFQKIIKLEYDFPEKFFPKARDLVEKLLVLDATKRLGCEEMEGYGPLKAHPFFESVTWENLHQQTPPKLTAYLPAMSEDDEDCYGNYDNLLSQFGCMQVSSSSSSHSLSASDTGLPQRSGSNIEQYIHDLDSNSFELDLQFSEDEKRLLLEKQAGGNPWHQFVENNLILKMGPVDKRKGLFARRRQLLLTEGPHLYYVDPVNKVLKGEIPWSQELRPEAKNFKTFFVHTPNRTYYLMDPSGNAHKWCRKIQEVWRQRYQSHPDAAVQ

[28] = biological target: Receptor tyrosine-protein kinase erbB-2 (Homo sapiens) (UniProt P04626); details: Compound concentration 1000.0 nM
[29] = biological target: Serine/threonine-protein kinase MAK (Homo sapiens) (UniProt P20794); details: Compound concentration 1000.0 nM
[30] = biological target: Serine/threonine-protein kinase PAK 6 (Homo sapiens) (UniProt Q9NQU5); details: Compound concentration 1000.0 nM
[31] = biological target: Phosphatidylinositol 4-phosphate 5-kinase type-1 gamma (Homo sapiens) (UniProt O60331); details: Compound concentration 1000.0 nM
[32] = biological target: Serine/threonine-protein kinase 17A (Homo sapiens) (UniProt Q9UEE5); details: Compound concentration 1000.0 nM
Serine/threonine-protein kinase 17A (Homo sapiens), sequence (Q9UEE5 whole entry): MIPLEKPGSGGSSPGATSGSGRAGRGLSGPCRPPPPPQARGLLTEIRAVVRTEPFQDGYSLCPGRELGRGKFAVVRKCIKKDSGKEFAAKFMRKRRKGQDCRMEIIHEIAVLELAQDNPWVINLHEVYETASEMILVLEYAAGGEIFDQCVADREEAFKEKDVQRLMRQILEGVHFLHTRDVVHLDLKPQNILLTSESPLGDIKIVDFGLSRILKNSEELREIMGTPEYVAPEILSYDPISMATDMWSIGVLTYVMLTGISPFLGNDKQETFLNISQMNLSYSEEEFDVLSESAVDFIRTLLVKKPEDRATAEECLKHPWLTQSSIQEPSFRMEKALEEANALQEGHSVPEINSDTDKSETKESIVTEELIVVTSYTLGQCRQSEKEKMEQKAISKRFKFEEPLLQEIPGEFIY

[33] = biological target: Serine/threonine-protein kinase D3 (Homo sapiens) (UniProt O94806); details: Compound concentration 1000.0 nM
[34] = biological target: Mitogen-activated protein kinase 11 (Homo sapiens) (UniProt Q15759); details: Compound concentration 1000.0 nM
[35] = biological target: Cyclin-dependent kinase 5 (Homo sapiens) (UniProt Q00535); details: Compound concentration 1000.0 nM
[36] = biological target: Activated CDC42 kinase 1 (Homo sapiens) (UniProt Q07912); details: Compound concentration 1000.0 nM
Activated CDC42 kinase 1 (Homo sapiens), sequence (Q07912 whole entry, looked up): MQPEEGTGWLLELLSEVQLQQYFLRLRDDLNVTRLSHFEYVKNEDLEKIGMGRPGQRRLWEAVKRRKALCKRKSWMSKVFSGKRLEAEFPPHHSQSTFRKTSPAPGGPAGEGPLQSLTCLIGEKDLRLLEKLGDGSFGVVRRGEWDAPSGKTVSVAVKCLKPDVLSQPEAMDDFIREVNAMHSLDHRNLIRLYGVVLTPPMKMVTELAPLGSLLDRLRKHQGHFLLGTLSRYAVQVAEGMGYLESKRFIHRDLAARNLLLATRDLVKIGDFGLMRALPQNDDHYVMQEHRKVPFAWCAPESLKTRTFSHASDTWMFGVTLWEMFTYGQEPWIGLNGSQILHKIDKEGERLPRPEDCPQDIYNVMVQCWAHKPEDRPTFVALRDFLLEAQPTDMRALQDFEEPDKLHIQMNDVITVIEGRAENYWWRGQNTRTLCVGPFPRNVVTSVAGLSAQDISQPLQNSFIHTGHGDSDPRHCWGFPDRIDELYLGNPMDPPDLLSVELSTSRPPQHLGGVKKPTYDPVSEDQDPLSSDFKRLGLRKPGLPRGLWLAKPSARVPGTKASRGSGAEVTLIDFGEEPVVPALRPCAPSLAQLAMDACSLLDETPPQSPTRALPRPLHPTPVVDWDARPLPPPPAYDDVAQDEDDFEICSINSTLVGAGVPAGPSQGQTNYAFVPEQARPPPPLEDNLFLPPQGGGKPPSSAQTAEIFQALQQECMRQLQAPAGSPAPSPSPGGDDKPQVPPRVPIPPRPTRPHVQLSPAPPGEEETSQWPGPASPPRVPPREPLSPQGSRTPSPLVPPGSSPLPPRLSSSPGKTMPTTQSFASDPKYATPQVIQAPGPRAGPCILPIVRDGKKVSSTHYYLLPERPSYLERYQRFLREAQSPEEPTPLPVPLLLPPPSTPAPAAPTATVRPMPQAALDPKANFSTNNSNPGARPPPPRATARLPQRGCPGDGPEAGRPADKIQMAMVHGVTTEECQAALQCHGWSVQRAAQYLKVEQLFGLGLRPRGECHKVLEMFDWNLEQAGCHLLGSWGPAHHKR

[37] = biological target: Ribosomal protein S6 kinase alpha-5 (Homo sapiens) (UniProt O75582); details: Compound concentration 1000.0 nM
[38] = biological target: G protein-coupled receptor kinase 3 (Homo sapiens) (UniProt P35626); details: Compound concentration 1000.0 nM
G protein-coupled receptor kinase 3 (Homo sapiens), sequence (P35626 whole entry): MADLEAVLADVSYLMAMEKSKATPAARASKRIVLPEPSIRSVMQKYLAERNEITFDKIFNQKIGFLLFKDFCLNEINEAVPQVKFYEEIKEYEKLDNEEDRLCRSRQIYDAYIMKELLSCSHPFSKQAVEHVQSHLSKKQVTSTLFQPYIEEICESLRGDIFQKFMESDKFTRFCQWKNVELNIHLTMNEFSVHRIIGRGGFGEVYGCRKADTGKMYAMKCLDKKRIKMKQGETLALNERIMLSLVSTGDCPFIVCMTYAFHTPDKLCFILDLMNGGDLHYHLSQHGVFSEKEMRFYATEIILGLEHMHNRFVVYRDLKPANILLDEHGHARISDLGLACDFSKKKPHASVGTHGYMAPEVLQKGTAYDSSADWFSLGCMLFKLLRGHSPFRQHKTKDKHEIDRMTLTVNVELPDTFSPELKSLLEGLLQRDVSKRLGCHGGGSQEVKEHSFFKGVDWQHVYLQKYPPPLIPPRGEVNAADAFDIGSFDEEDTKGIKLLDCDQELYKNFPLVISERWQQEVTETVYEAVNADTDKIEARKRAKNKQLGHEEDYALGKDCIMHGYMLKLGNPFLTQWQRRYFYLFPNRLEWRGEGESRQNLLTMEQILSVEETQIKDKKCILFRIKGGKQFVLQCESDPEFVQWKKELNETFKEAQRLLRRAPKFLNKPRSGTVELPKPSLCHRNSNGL

[39] = biological target: Cyclin-dependent kinase-like 5 (Homo sapiens) (UniProt O76039); details: Compound concentration 1000.0 nM
[40] = biological target: Tyrosine-protein kinase ABL2 (Homo sapiens) (UniProt P42684); details: Compound concentration 1000.0 nM
[41] = biological target: Tyrosine-protein kinase JAK1 (Homo sapiens) (UniProt P23458); details: Compound concentration 1000.0 nM
[42] = system: Epidermal growth factor receptor (Homo sapiens), P00533 [L861Q]; details: Compound concentration 1000.0 nM
[43] = biological target: Dual specificity testis-specific protein kinase 1 (Homo sapiens) (UniProt Q15569); details: Compound concentration 1000.0 nM
[44] = biological target: Ribosomal protein S6 kinase alpha-4 (Homo sapiens) (UniProt O75676); details: Compound concentration 1000.0 nM
[45] = biological target: Serine/threonine-protein kinase NIM1 (Homo sapiens) (UniProt Q8IY84); details: Compound concentration 1000.0 nM

Phosphorylase b kinase gamma catalytic chain, skeletal muscle/heart isoform (Homo sapiens), sequence (Q16816 whole entry, looked up, canonical isoform): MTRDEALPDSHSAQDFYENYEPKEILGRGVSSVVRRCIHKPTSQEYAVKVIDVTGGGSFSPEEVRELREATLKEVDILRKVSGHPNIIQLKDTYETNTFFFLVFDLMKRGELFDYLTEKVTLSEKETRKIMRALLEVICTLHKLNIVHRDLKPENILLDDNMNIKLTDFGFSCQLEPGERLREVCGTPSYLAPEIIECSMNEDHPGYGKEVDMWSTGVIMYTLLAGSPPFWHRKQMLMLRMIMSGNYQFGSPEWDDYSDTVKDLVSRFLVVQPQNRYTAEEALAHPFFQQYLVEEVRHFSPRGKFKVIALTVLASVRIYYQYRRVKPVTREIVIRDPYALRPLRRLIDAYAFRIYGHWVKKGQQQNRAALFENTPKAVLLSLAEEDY

N#CC1(c2ccccn2)CCN(Cc2cc(C(=O)N3CCCC3)c(=O)n3ccccc23)CC1
inactive: residual activity [1] 100% | residual activity [2] 96% | residual activity [3] 85% | residual activity [4] 99% | residual activity [5] 100% | residual activity [6] 88% | residual activity [7] 100% | residual activity [8] 98% | residual activity [9] 100% | residual activity [10] 100% | residual activity [11] 87% | residual activity [12] 86% | residual activity [13] 91% | residual activity [14] 100% | inhibition [15] -5.76% | residual activity [16] 84% | residual activity [17] 100% | residual activity [18] 95% | residual activity [19] 90% | residual activity [20] 87% | residual activity [21] 93% | residual activity [22] 83% | residual activity [23] 78% | residual activity [24] 100% | residual activity [25] 82% | residual activity [26] 99% | residual activity [27] 81% | residual activity [28] 95% | residual activity [29] 93% | residual activity [30] 100% | residual activity [31] 68% | residual activity [32] 96% | residual activity [33] 100% | residual activity [34] 76% | residual activity [35] 92% | residual activity [36] 85% | residual activity [37] 90% | residual activity [38] 77% | residual activity [39] 100% | residual activity [40] 100% | residual activity [41] 95% | residual activity [42] 79% | residual activity [43] 90% | residual activity [44] 79% | residual activity [45] 95%

N#CC1(c2ccccn2)CCN(Cc2cc(C(=O)O)c(=O)n3ccccc23)CC1 [MSD-M1PAM]
inactive: residual activity [1] 100% | residual activity [2] 89% | residual activity [3] 100% | residual activity [4] 100% | residual activity [5] 100% | residual activity [6] 100% | residual activity [7] 66% | residual activity [8] 74% | residual activity [9] 78% | residual activity [10] 100% | residual activity [11] 100% | residual activity [12] 100% | residual activity [13] 100% | residual activity [14] 100% | inhibition [15] 16.2% | residual activity [16] 83% | residual activity [17] 100% | residual activity [18] 100% | residual activity [19] 80% | residual activity [20] 100% | residual activity [21] 100% | residual activity [22] 92% | residual activity [23] 98% | residual activity [24] 100% | residual activity [25] 95% | residual activity [26] 99% | residual activity [27] 100% | residual activity [28] 96% | residual activity [29] 97% | residual activity [30] 100% | residual activity [31] 89% | residual activity [32] 100% | residual activity [33] 98% | residual activity [34] 100% | residual activity [35] 100% | residual activity [36] 99% | residual activity [37] 83% | residual activity [38] 95% | residual activity [39] 100% | residual activity [40] 100% | residual activity [41] 100% | residual activity [42] 100% | residual activity [43] 100% | residual activity [44] 94% | residual activity [45] 69%
